Here are results for 20 molecules from patent publication US20240016942A1, “STAT DEGRADERS AND USES THEREOF” (Kymera Therapeutics, Inc., priority 2020, published 2024).

The target in the test is T1, STAT3 (Homo sapiens, UniProt P40763).
T1 construct: expressed in transfected cells; host or cells: A549
T1 sequence (P40763 whole entry): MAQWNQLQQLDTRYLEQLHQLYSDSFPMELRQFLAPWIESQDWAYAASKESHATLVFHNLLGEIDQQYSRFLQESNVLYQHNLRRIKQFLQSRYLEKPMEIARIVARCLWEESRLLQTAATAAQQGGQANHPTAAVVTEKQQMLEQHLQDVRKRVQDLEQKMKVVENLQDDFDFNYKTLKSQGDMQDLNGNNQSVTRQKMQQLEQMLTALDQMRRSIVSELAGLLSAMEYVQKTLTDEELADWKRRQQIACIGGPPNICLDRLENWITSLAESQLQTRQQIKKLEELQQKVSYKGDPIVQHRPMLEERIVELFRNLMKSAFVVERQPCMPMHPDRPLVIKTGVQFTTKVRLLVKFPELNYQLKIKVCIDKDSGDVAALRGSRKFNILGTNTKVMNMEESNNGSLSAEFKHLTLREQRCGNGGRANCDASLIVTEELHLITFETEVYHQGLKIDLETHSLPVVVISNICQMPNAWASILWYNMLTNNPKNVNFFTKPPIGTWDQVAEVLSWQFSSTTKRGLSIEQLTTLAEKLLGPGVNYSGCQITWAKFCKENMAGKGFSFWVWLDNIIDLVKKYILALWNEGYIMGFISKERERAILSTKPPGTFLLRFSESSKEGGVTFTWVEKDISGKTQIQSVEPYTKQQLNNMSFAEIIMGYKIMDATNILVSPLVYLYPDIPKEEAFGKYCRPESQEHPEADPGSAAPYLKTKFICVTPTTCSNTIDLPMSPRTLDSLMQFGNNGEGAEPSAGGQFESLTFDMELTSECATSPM
The experiment in a line: STAT3 HiBiT degradation assay (Nano-Glo HiBiT lytic detection) in transfected A549 cells. The test is classed as cell-based. As to conditions: 24 h compound incubation, read-out: STAT3 HiBIT A549 degradation 24 h: Average external-Abs DC50. The method, then: Example 1. HiBiT Assay Protocol
Compound preparation and Cell seeding: The transfected A549 cells were harvested from dish into cell culture medium and cell numbers counted. Cells were diluted with culture medium to the desired density and 30 μL of cell suspension (about 2000 cells/well) were added into each well of a 384-well cell culture plate as designated and transferred into 37° C. 5% CO2 incubator for 24 h. Compounds were dissolved to 10 mM stock solution and 12 μL of the stock solution was transferred to a 384 LDV-plate. 3 fold, 10-point dilution was performed by transferring 4 μL compound into 8 μL DMSO using a TECAN (EVO200) liquid handler. 30 μl of diluted compound from compound source plate was transferred into the cell plate as designated by using Echo550 and transferred into 37° C. 5% CO2 incubator for 24 h.
Detection: Plates were removed from incubators and equilibrated at room temperature for 15 minutes. Nano-Glo Hibit Lytic Detection reagent (Promega Cat #N3040) was thawed and equilibrated to room temperature before the experiment. 30 μL of Nano-Glo Hibit Lytic Detection reagent was added into each well to be detected. The plates were held at room temperature for 10 min followed by reading on EnSpire.
Data analysis: The remaining activity was calculated following the formula: Remaining Activity (%)=100%×(Lumsample−LumNC)/(LumPC−LumNC). Calculate the IC50 by fitting the curve using Xlfit (v5.3.1.3), equation 201: fit=(A+((B−A)/(1+((x/C)^D)))); A: Botton; B: Top; C: IC50; and D: Slope.
The letter codes for STAT3 DC50 include: A (<0.01 μM), B (0.01-0.1 μM), C (0.1-1.0 μM), and D (>1.0 μM).
One may read the DC50 as the midpoint of the concentration-degradation curve. Turning to `Cn1c(=O)n(C2CCC(=O)NC2=O)c2ccc(C[C@H]3CC[C@@H](CC(=O)N4CC[C@H]5CC[C@@H](C(=O)N[C@@H](CCC(N)=O)COc6cccc(S(C)(=O)=O)c6)N5C(=O)[C@@H](NC(=O)c5cc6cc(C(=O)P(=O)(O)O)ccc6[nH]5)C4)CC3)cc21` (some centres unmarked) [I-51], the DC50 was 10 to 100 nM.

On to `Cn1c(=O)n(C2CCC(=O)NC2=O)c2ccc(C[C@H]3CC[C@@H](CCN4CC[C@H]5CC[C@@H](C(=O)N[C@@H](CCC(N)=O)C(=O)NCc6ccc(S(C)(=O)=O)cc6)N5C(=O)[C@@H](NC(=O)c5cc6cc(C(=O)P(=O)(O)O)ccc6[nH]5)C4)CC3)cc21` (stereo partly drawn) [I-52, 2-[[(5S,8S,10aR)-8-[[(1S)-3-carbamoyl-1-[[(4-methanesulfonylphenyl)methyl]carbamoyl]propyl]carbamoyl]-6-oxo-3-[2-[(1s,4s)-4-[[1-(2,6-dioxopiperidin-3-yl)-3-methyl-2-oxo-1,3-benzodiazol-5-yl]methyl]cyclohexyl]ethyl]-octahydropyrrolo[1,2-a][1,5]diazocin-5-yl]carbamoyl]-1H-indole-5-carbonylphosphonic acid], for which the DC50 fell in the range of 100 to 1000 nM.

As to `Cc1ncsc1-c1ccc([C@H](C)NC(=O)[C@@H]2C[C@@H](O)CN2C(=O)[C@@H](NC(=O)CCCc2cccc(OC[C@H](CCC(N)=O)NC(=O)[C@@H]3CC[C@@H]4CCN(C(=O)C(C)C)C[C@H](NC(=O)c5cc6cc(C(=O)P(=O)(O)O)ccc6[nH]5)C(=O)N43)c2Cl)C(C)(C)C)cc1` [I-54], the 50% degradation concentration (DC50) was < 10 nM.

As to `Cc1ncsc1-c1ccc([C@H](C)NC(=O)[C@@H]2C[C@@H](O)CN2C(=O)[C@@H](NC(=O)CC2CCC(c3cccc(OC[C@H](CCC(N)=O)NC(=O)[C@@H]4Cc5cccc6c5N4C(=O)[C@@H](NC(=O)c4cc5cc(C(=O)P(=O)(O)O)ccc5[nH]4)CC6)c3Cl)CC2)C(C)(C)C)cc1` (some centres unmarked) [I-55], the DC50 fell in the range of 10 to 100 nM.

Consider `Cc1ncsc1-c1ccc([C@H](C)NC(=O)[C@@H]2C[C@@H](O)CN2C(=O)[C@@H](NC(=O)CC2CCC(c3cccc(OC[C@H](CCC(N)=O)NC(=O)[C@@H]4Cc5cccc6c5N4C(=O)[C@@H](NC(=O)c4cc5cc(C(=O)P(=O)(O)O)ccc5[nH]4)CC6)c3Cl)CC2)C(C)(C)C)cc1` (some centres unmarked) [I-56], for which the half-maximal degradation concentration (DC50) lay in the range of 100 to 1000 nM.

With `Cn1c(=O)n(C2CCC(=O)NC2=O)c2ccc(NCCCCCc3cc4c5c(c3)C[C@@H](C(=O)N[C@@H](CCC(N)=O)C(=O)NCc3ccc(S(C)(=O)=O)cc3)N5C(=O)[C@@H](NC(=O)c3cc5cc(C(=O)P(=O)(O)O)ccc5[nH]3)CC4)cc21` (stereo partly drawn) [I-57, 2-[[(2S,11S)-2-[[(1S)-3-carbamoyl-1-[[(4-methanesulfonylphenyl)methyl]carbamoyl]propyl]carbamoyl]-6-(5-[[1-(2,6-dioxopiperidin-3-yl)-3-methyl-2-oxo-1,3-benzodiazol-5-yl]amino]pentyl)-12-oxo-1-azatricyclo[6.4.1.0^[4,13]]trideca-4(13),5,7-trien-11-yl]carbamoyl]-1H-indole-5-carbonylphosphonic acid], the DC50 lay in the range of 10 to 100 nM.

As for `Cc1ncsc1-c1ccc([C@H](C)NC(=O)[C@@H]2C[C@@H](O)CN2C(=O)[C@@H](NC(=O)CCCc2cccc(OC[C@H](CCC(N)=O)NC(=O)[C@@H]3CCCN3C(=O)[C@H](C)NC(=O)c3cc4cc(C(=O)P(=O)(O)O)ccc4[nH]3)c2Cl)C(C)(C)C)cc1` [I-58], the DC50 is 10 to 100 nM.

With `CC(C)c1ccc(CNC(=O)[C@H](CCC(N)=O)NC(=O)[C@@H]2CC[C@@H]3CCN(C(=O)[C@H]4CC[C@@H](CCc5ccc6c(c5)n(C)c(=O)n6C5CCC(=O)NC5=O)CC4)C[C@H](NC(=O)c4cc5cc(C(=O)P(=O)(O)O)ccc5[nH]4)C(=O)N32)cc1` (stereo partly drawn) [I-59, (2-(((5S,8S,10aR)-8-(((S)-5-amino-1-((4-isopropylbenzyl)amino)-1,5-dioxopentan-2-yl)carbamoyl)-3-((1r,4R)-4-(2-(1-(2,6-dioxopiperidin-3-yl)-3-methyl-2-oxo-2,3-dihydro-1H-benzo[d]imidazol-5-yl)ethyl)cyclohexane-1-carbonyl)-6-oxodecahydropyrrolo[1,2-a][1,5]diazocin-5-yl)carbamoyl)-1H-indole-5-carbonyl)phosphonic acid], the 50% degradation concentration (DC50) was in the range of 10 to 100 nM.

With `Cc1ncsc1-c1ccc([C@H](C)NC(=O)[C@@H]2C[C@@H](O)CN2C(=O)[C@@H](NC(=O)CCCc2cccc(OC[C@H](CCC(N)=O)NC(=O)[C@@H]3CC[C@@H]4CCN(C(=O)c5cccc(F)c5)C[C@H](NC(=O)c5cc6cc(C(=O)P(=O)(O)O)ccc6[nH]5)C(=O)N43)c2Cl)C(C)(C)C)cc1` [I-60], the half-maximal degradation concentration (DC50) is 10 to 100 nM.

Consider `Cc1ncsc1-c1ccc([C@H](C)NC(=O)[C@@H]2C[C@@H](O)CN2C(=O)[C@@H](NC(=O)CCCc2cccc(OC[C@H](CCC(N)=O)NC(=O)[C@@H]3CCCN3C(=O)[C@H](Cc3c[nH]cn3)NC(=O)c3cc4cc(C(=O)P(=O)(O)O)ccc4[nH]3)c2Cl)C(C)(C)C)cc1` [I-61], for which the 50% degradation concentration (DC50) is 10 to 100 nM.

Take `CCS(=O)(=O)c1ccc(CNC(=O)[C@H](CCC(N)=O)NC(=O)[C@@H]2CC[C@@H]3CCN(C(=O)C[C@H]4CC[C@@H](Cc5ccc6c(c5)n(C)c(=O)n6C5CCC(=O)NC5=O)CC4)C[C@H](NC(=O)c4cc5cc(C(=O)P(=O)(O)O)ccc5[nH]4)C(=O)N32)cc1` (some centres unmarked) [I-62]: the DC50 was in the range of 10 to 100 nM.

Regarding `Cc1ncsc1-c1ccc(CNC(=O)[C@@H]2C[C@@H](O)CN2C(=O)[C@@H](c2cc(OCCCc3cccc(OC[C@H](CCC(N)=O)NC(=O)[C@@H]4Cc5cccc6c5N4C(=O)[C@@H](NC(=O)c4cc5cc(C(=O)P(=O)(O)O)ccc5[nH]4)CC6)c3Cl)no2)C(C)C)cc1` [I-63], the DC50 is < 10 nM.

Consider `CN1C(=O)CCC(n2c(=O)n(C)c3cc(C[C@H]4CC[C@@H](CC(=O)N5CC[C@H]6CC[C@@H](C(=O)N[C@@H](CCC(N)=O)C(=O)NC(c7ccccc7)c7ccccc7)N6C(=O)[C@@H](NC(=O)c6cc7cc(C(=O)P(=O)(O)O)ccc7[nH]6)C5)CC4)ccc32)C1=O` (some centres unmarked) [I-64], for which the DC50 is > 1000 nM.

Turning to `C[C@H](NC(=O)[C@@H]1Cc2cc(CCCCCCc3ccc4c(c3)n(C)c(=O)n4C3CCC(=O)NC3=O)cc3c2N1C(=O)[C@@H](NC(=O)c1cc2cc(C(=O)P(=O)(O)O)ccc2[nH]1)CC3)C(=O)NCc1ccc(S(C)(=O)=O)cc1` (stereo partly drawn) [I-65, 2-[[(2S,11S)-6-[6-[1-(2,6-dioxopiperidin-3-yl)-3-methyl-2-oxo-1,3-benzodiazol-5-yl]hexyl]-2-[[(1S)-1-[[(4-methanesulfonylphenyl)methyl]carbamoyl]ethyl]carbamoyl]-12-oxo-1-azatricyclo[6.4.1.0^[4,13]]trideca-4(13),5,7-trien-11-yl]carbamoyl]-1H-indole-5-carbonylphosphonic acid], the DC50 was > 1000 nM.

In the case of `Cc1ncsc1-c1ccc([C@H](C)NC(=O)[C@@H]2C[C@@H](O)CN2C(=O)[C@@H](NC(=O)CCCc2cccc(OC[C@H](CCC(N)=O)NC(=O)[C@@H]3CC[C@@H]4CCN(C(=O)C(F)(F)F)C[C@H](NC(=O)c5cc6cc(C(=O)P(=O)(O)O)ccc6[nH]5)C(=O)N43)c2Cl)C(C)(C)C)cc1` [I-66], the 50% degradation concentration (DC50) is < 10 nM.

For the molecule `Cn1c(=O)n(C2CCC(=O)NC2=O)c2ccc(C[C@H]3CC[C@@H](CC(=O)N4CC[C@H]5CC[C@@H](C(=O)N[C@@H](CCC(N)=O)COc6ccc(S(C)(=O)=O)cc6)N5C(=O)[C@@H](NC(=O)c5cc6cc(C(=O)P(=O)(O)O)ccc6[nH]5)C4)CC3)cc21` (some centres unmarked) [I-67], the 50% degradation concentration (DC50) was 100 to 1000 nM.

With `Cn1c(=O)n(C2CCC(=O)NC2=O)c2ccc(CC[C@H]3CC[C@@H](C(=O)N4CC[C@H]5CC[C@@H](C(=O)N[C@@H](CCC(N)=O)C(=O)NCc6ccc(S(C)(=O)=O)cc6)N5C(=O)[C@@H](NC(=O)c5cc6cc(C(=O)P(=O)(O)O)ccc6[nH]5)C4)CC3)cc21` (stereo partly drawn) [I-68, 2-[[(5S,8S,10aR)-8-[[(1S)-3-carbamoyl-1-[[(4-methanesulfonylphenyl)methyl]carbamoyl]propyl]carbamoyl]-6-oxo-3-[(1r,4s)-4-[2-[1-(2,6-dioxopiperidin-3-yl)-3-methyl-2-oxo-1,3-benzodiazol-5-yl]ethyl]cyclohexanecarbonyl]-octahydropyrrolo[1,2-a][1,5]diazocin-5-yl]carbamoyl]-1H-indole-5-carbonylphosphonic acid], the half-maximal degradation concentration (DC50) was in the range of 10 to 100 nM.

Take `CC(=O)N1CC[C@H]2CC[C@@H](C(=O)N[C@@H](CCC(N)=O)COc3cccc(CCCOc4cc([C@H](C(=O)N5C[C@H](O)C[C@H]5C(=O)NCc5ccc(-c6scnc6C)cc5)C(C)C)on4)c3Cl)N2C(=O)[C@@H](NC(=O)c2cc3cc(C(=O)P(=O)(O)O)ccc3[nH]2)C1` [I-69]: the DC50 was < 10 nM.

For `CC(C)S(=O)(=O)c1ccc(CNC(=O)[C@H](CCC(N)=O)NC(=O)[C@@H]2CC[C@@H]3CCN(C(=O)C[C@H]4CC[C@@H](Cc5ccc6c(c5)n(C)c(=O)n6C5CCC(=O)NC5=O)CC4)C[C@H](NC(=O)c4cc5cc(C(=O)P(=O)(O)O)ccc5[nH]4)C(=O)N32)cc1` (some centres unmarked) [I-70], the DC50 was 10 to 100 nM.

For the molecule `Cc1ncsc1-c1ccc(C2(NC(=O)[C@@H]3C[C@@H](O)CN3C(=O)[C@@H](NC(=O)CCCc3cccc(OC[C@H](CCC(N)=O)NC(=O)[C@@H]4Cc5cccc6c5N4C(=O)[C@@H](NC(=O)c4cc5cc(C(=O)P(=O)(O)O)ccc5[nH]4)CC6)c3Cl)C(C)(C)C)CC2)cc1` [I-71], the DC50 lay in the range of 10 to 100 nM.
